This note sets out measurements from article PMC8580884, “A Novel System for Evaluating the Inhibition Effect of Drugs on Cytochrome P450 Enzymes in vitro Based on Human-Induced Hepatocytes (hiHeps)” (Frontiers in Pharmacology, 2021).

Series [1] addresses T1, CYP2B6 (Homo sapiens, UniProt P20813).
T1 construct: native enzyme in human liver microsomes (IC50) or human-induced hepatocytes hiHeps (Km); read by bupropion to hydroxybupropion
T1 sequence (P20813 1-491): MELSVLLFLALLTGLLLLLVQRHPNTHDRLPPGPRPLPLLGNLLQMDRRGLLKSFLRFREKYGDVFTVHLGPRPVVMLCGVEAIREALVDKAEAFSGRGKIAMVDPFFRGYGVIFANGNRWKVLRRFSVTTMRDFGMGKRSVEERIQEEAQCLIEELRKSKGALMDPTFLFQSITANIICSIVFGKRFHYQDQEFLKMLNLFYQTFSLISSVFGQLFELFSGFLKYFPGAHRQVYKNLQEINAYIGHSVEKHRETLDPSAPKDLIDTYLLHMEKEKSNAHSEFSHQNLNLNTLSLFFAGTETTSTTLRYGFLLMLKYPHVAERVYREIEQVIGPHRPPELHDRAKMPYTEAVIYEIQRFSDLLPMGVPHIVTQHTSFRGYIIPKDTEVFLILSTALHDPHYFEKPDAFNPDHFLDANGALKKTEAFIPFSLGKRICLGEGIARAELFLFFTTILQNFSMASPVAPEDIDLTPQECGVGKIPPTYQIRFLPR
Description: intact hiHeps cells, metabolite by UPLC-MS/MS, Lineweaver-Burk. The format is cell-based. To be noted: hepatocytes.

The target in series [2] is T2, CYP3A4 (Homo sapiens, UniProt P08684).
T2 construct: native enzyme in human liver microsomes (IC50) or human-induced hepatocytes hiHeps (Km); read by midazolam to 1'-hydroxymidazolam (CYP3A5 may contribute)
T2 sequence (P08684 2-503): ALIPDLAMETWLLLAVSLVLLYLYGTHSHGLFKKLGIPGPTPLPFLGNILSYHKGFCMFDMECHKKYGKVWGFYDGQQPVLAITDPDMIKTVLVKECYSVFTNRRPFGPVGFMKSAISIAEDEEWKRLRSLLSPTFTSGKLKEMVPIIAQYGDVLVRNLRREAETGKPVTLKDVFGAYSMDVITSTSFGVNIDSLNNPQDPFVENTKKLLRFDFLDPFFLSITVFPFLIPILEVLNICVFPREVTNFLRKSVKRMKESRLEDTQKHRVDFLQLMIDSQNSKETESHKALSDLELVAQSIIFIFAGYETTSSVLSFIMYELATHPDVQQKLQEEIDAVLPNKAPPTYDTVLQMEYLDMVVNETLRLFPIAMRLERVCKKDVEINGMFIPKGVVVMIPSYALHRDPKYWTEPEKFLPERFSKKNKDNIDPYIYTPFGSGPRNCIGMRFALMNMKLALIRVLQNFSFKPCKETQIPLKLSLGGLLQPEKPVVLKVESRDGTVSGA
The series is described as above. The format is cell-based.

The next series concerns the target T3, CYP2C9 (Homo sapiens, UniProt P11712).
T3 construct: native enzyme in human liver microsomes (IC50) or human-induced hepatocytes hiHeps (Km); read by diclofenac to 4'-hydroxydiclofenac
The description is as above. It is filed as cell-based. To be noted: hepatocytes.

In series [3] the target is T1, CYP2B6. Description: human liver microsomes, cocktail probe assay, UPLC-MS/MS. The format is biochemical. Particulars: read-out: IC50 (μM) / HLM. The source says: human liver microsomes, cocktail probe assay, UPLC-MS/MS on CYP2B6
A further series deals with T4, CYP1A2 (Homo sapiens, UniProt P05177).
T4 construct: native enzyme in pooled human liver microsomes (IC50) or human-induced hepatocytes hiHeps (Km); read by phenacetin to acetaminophen
T4 sequence (P05177 2-516): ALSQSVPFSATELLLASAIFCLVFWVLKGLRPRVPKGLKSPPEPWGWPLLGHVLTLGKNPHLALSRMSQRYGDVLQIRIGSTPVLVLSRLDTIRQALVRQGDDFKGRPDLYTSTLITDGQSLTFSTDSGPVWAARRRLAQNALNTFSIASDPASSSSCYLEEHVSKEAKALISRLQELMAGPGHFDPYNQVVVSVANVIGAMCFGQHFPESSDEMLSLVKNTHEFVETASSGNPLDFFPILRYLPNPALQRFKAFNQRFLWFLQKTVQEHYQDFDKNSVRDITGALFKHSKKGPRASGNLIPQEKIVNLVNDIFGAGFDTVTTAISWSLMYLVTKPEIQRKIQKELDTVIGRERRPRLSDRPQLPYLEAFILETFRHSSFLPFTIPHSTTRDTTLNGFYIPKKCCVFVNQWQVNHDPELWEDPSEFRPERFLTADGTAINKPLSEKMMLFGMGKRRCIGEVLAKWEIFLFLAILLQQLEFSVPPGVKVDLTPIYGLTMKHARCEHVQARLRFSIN
The description is as above. The format is biochemical. Particulars: read-out: IC50 (μM) / HLM. The source says:
human liver microsomes, cocktail probe assay, UPLC-MS/MS on CYP1A2

For series [4], the target named is T2, CYP3A4. The series is described as above. The format is biochemical. To be noted: 10 μM midazolam in five-probe cocktail, NADPH, MgCl2, alamethicin, 37°C, 60 min; read-out: IC50 (μM) / HLM. From the text: human liver microsomes, cocktail probe assay, UPLC-MS/MS on CYP3A4
For a further series, the target named is T5, CYP2C19 (Homo sapiens, UniProt P33261).
T5 construct: native enzyme in human liver microsomes (IC50) or human-induced hepatocytes hiHeps (Km)
T5 sequence (P33261 whole entry): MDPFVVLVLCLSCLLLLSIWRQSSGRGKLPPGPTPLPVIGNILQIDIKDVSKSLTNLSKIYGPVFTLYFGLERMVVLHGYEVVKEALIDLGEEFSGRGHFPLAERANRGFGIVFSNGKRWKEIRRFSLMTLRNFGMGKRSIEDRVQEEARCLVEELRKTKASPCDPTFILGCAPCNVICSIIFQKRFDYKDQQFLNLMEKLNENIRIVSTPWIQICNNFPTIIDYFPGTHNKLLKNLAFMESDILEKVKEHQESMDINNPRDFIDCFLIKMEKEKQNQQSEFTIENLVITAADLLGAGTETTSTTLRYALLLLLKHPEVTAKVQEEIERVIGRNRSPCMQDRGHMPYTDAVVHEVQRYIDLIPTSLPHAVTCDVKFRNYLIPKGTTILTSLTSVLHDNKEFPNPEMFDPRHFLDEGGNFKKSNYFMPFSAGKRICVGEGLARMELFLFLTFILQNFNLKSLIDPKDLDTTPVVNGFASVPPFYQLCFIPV
Described as above. The format is biochemical. Particulars: read-out: IC50 (μM) / HLM. The source says: human liver microsomes, cocktail probe assay, UPLC-MS/MS on CYP2C19

Some results are limits rather than exact numbers.

T3 sequence (P11712 whole entry): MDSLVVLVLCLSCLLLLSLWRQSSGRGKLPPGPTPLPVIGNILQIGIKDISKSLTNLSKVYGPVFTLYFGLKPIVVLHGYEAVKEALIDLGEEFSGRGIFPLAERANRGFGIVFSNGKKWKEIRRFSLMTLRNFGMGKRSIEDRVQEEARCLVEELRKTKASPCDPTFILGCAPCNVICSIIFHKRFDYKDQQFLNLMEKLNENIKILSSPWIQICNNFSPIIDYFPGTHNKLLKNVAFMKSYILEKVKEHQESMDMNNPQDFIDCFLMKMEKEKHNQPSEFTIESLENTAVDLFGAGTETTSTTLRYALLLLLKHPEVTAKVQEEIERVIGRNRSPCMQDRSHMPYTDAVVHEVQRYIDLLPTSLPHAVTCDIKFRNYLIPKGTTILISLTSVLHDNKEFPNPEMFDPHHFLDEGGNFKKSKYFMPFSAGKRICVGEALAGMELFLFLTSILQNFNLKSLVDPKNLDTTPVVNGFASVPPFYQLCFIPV

As to `CC(NC(C)(C)C)C(=O)c1cccc(Cl)c1` (stereo not shown) [bupropion], the Km – broadly, the concentration of substrate that gives half-maximal velocity – on CYP2B6 [1] turned out to be 151 µM. As to `Cc1ncc2n1-c1ccc(Cl)cc1C(c1ccccc1F)=NC2` [midazolam], the Km at CYP3A4 [2] came out at 13.9 µM. Regarding `O=C(O)Cc1ccccc1Nc1c(Cl)cccc1Cl` [diclofenac], the Michaelis-Menten constant (Km) at CYP2C9 worked out at 41.9 µM.

Regarding `COc1cc(/C=C/C(=O)CC(=O)/C=C/c2ccc(O)c(OC)c2)ccc1O` [curcumin], the IC50 on CYP2B6 [3] is 30 ± 2.09 µM; on CYP1A2 it was 50.1 ± 2.71 µM; on CYP3A4 [4] it was 21 ± 1.27 µM; at CYP2C19 it was over 500 µM.
